Molecular target: T1, curli (CsgA amyloid fibers) (Escherichia coli, UniProt P28307)
T1 construct: native curli fibers isolated from MC4100, mature CsgA polymer (sec signal removed; native fibers may contain minor nucleator CsgB); immobilized by amine coupling for SPR
Assay: surface plasmon resonance (Biacore […]), curli immobilized on CM5 chip
Format: binding

T1 sequence (P28307 21-151): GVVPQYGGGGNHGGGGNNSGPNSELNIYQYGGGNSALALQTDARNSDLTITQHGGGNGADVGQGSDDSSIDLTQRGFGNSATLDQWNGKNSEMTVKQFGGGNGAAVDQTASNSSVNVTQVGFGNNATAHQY

Nc1c(/N=N/c2ccc(-c3ccc(/N=N/c4cc(S(=O)(=O)O)c5ccccc5c4N)cc3)cc2)cc(S(=O)(=O)O)c2ccccc12 [CR, Congo red]
Kd: 2800 nM

From article PMC4618944, “Congo Red Interactions with Curli-Producing E. coli and Native Curli Amyloid Fibers” (PLoS ONE, 2015)
